Measurements published in ChEMBL document CHEMBL1201862, “PubChem BioAssay data set” (2004).
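Step 1: Grow cells in 96-well plates. Step 2: Expose to compound for 48 hours at 5 concentrations. Step 3: Interpolate endpoints linearly; if unreached, use highest concentration. GI50 is the concentration that inhibits growth by half.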 The source made the active and inactive calls. Rule as the data show it: active = GI50 up to about 1.1 µM and inactive = higher. Residues, ends and D or L forms follow the SMILES beside them. *: point of attachment. Pentanoyl = CCCCC(=O)*; Boc = CC(C)(C)OC(=O)*

Key:
Test in all cases: inhibition of tumour cell growth, NCI panel, 48 h
[1] = test system: CCRF-CEM
[2] = test system: DU-145
[3] = test system: HCC 2998
[4] = test system: HCT-15
[5] = test system: IGROV-1
[6] = test system: MCF7
[7] = test system: MDA-MB-231
[8] = test system: NCI-H522
[9] = test system: OVCAR-5
[10] = test system: SF-295
[11] = test system: SF-539
[12] = test system: SNB-75
[13] = test system: SR
[14] = test system: SW-620
[15] = test system: TK-10
[16] = test system: U-251
[17] = test system: UACC-62
[18] = test system: Malme-3M
[19] = test system: SK-MEL-2
[20] = test system: A498

CCOC(CN(C)C(=O)OCC(Cl)(Cl)Cl)OCC
GI50 [1]: 56.6 µM (inactive) | GI50 [2]: > 100 µM (inactive) | GI50 [3]: > 100 µM (inactive) | GI50 [4]: 77.8 µM | GI50 [5]: > 100 µM (inactive) | GI50 [6]: 67.9 µM (inactive) | GI50 [7]: 25.5 µM (inactive) | GI50 [8]: 47.8 µM (inactive) | GI50 [9]: > 100 µM (inactive) | GI50 [10]: > 100 µM (inactive) | GI50 [11]: > 100 µM (inactive) | GI50 [12]: 83.4 µM (inactive) | GI50 [13]: 34.2 µM (inactive) | GI50 [14]: > 100 µM (inactive) | GI50 [15]: > 100 µM (inactive) | GI50 [16]: 74.8 µM (inactive) | GI50 [17]: > 100 µM (inactive)

Cc1c(C)c2c(c(N)c1C#N)C(=O)N(Nc1ccccc1)C2=O
GI50 [1]: 97.1 µM (inactive) | GI50 [2]: > 100 µM (inactive) | GI50 [3]: > 100 µM (inactive) | GI50 [4]: > 100 µM | GI50 [5]: 42.7 µM (inactive) | GI50 [6]: 60.1 µM (inactive) | GI50 [7]: 31.9 µM (inactive) | GI50 [18]: 51.5 µM (inactive) | GI50 [8]: 29.2 µM (inactive) | GI50 [9]: > 100 µM (inactive) | GI50 [10]: 34.1 µM (inactive) | GI50 [11]: 40.1 µM (inactive) | GI50 [19]: 96.8 µM (inactive) | GI50 [12]: 30.6 µM (inactive) | GI50 [13]: 66.1 µM (inactive) | GI50 [14]: > 100 µM (inactive) | GI50 [15]: 28.1 µM (inactive) | GI50 [16]: 43.5 µM (inactive) | GI50 [17]: 51.4 µM (inactive)

COC(=O)C(C)Sc1nc2cc(Cl)ccc2s1 (stereo unspecified)
GI50 [20]: > 100 µM (inactive) | GI50 [1]: 78.5 µM (inactive) | GI50 [2]: > 100 µM (inactive) | GI50 [3]: > 100 µM (inactive) | GI50 [4]: > 100 µM | GI50 [5]: > 100 µM (inactive) | GI50 [6]: > 100 µM (inactive) | GI50 [7]: > 100 µM (inactive) | GI50 [18]: > 100 µM (inactive) | GI50 [8]: > 100 µM (inactive) | GI50 [9]: > 100 µM (inactive) | GI50 [10]: > 100 µM (inactive) | GI50 [11]: > 100 µM (inactive) | GI50 [12]: > 100 µM (inactive) | GI50 [14]: > 100 µM (inactive) | GI50 [16]: > 100 µM (inactive) | GI50 [17]: > 100 µM (inactive)

CC(C)c1cc(C(C)C)c(S(=O)(=O)N/N=C2\CC3CCC2(C)C3(C)C)c(C(C)C)c1 (stereo unspecified)
GI50 [20]: 0.0222 µM (active) | GI50 [1]: 4.69 µM (inactive) | GI50 [2]: 18 µM (inactive) | GI50 [3]: 23.3 µM (inactive) | GI50 [4]: 46 µM | GI50 [5]: 27.3 µM (inactive) | GI50 [6]: 10 µM (inactive) | GI50 [7]: 5.74 µM (inactive) | GI50 [18]: 25.5 µM (inactive) | GI50 [8]: 5.37 µM (inactive) | GI50 [9]: 48 µM (inactive) | GI50 [10]: 10.4 µM (inactive) | GI50 [19]: 18.9 µM (inactive) | GI50 [14]: 57.1 µM (inactive) | GI50 [15]: 38.8 µM (inactive) | GI50 [16]: 23.3 µM (inactive) | GI50 [17]: 37.3 µM (inactive)

N#Cc1cc(-c2nc3c(F)cccc3s2)ccc1N
GI50 [20]: > 100 µM (inactive) | GI50 [1]: 85.5 µM (inactive) | GI50 [2]: > 100 µM (inactive) | GI50 [4]: > 100 µM | GI50 [5]: 6.1 µM (inactive) | GI50 [6]: 0.133 µM (active) | GI50 [7]: > 100 µM (inactive) | GI50 [18]: 88.9 µM (inactive) | GI50 [8]: > 100 µM (inactive) | GI50 [9]: > 100 µM (inactive) | GI50 [10]: > 100 µM (inactive) | GI50 [11]: > 100 µM (inactive) | GI50 [12]: > 100 µM (inactive) | GI50 [14]: > 100 µM (inactive) | GI50 [15]: 4.26 µM (inactive) | GI50 [16]: > 100 µM (inactive) | GI50 [17]: > 100 µM (inactive)

O=C(/C=C/c1ccccc1)/C=N/N1C(=S)N(c2ccccc2)C(=N\c2ccccc2)/C1=N/c1ccccc1
GI50 [2]: > 100 µM (inactive) | GI50 [3]: > 100 µM (inactive) | GI50 [4]: > 100 µM | GI50 [5]: > 100 µM (inactive) | GI50 [6]: 33 µM (inactive) | GI50 [7]: > 100 µM (inactive) | GI50 [18]: > 100 µM (inactive) | GI50 [8]: 11.2 µM (inactive) | GI50 [9]: > 100 µM (inactive) | GI50 [10]: > 100 µM (inactive) | GI50 [11]: > 100 µM (inactive) | GI50 [19]: > 100 µM (inactive) | GI50 [13]: > 100 µM (inactive) | GI50 [14]: > 100 µM (inactive) | GI50 [15]: > 100 µM (inactive) | GI50 [16]: > 100 µM (inactive) | GI50 [17]: > 100 µM (inactive)

Oc1ccc(Cl)cc1CN1CCN(Cc2cc(Cl)ccc2O)C1
GI50 [20]: 16 µM (inactive) | GI50 [1]: 0.0603 µM (active) | GI50 [2]: 1.92 µM (inactive) | GI50 [3]: 1.03 µM (active) | GI50 [5]: 1.89 µM (inactive) | GI50 [6]: 10.5 µM (inactive) | GI50 [7]: 0.403 µM (active) | GI50 [18]: 2.17 µM (inactive) | GI50 [8]: 3.31 µM (inactive) | GI50 [9]: 5.09 µM (inactive) | GI50 [10]: 0.682 µM (active) | GI50 [11]: 0.946 µM (active) | GI50 [19]: 1.73 µM (inactive) | GI50 [12]: 1.52 µM (inactive) | GI50 [14]: 0.547 µM (active) | GI50 [15]: 1.55 µM (inactive) | GI50 [16]: 1.11 µM (active) | GI50 [17]: 1.85 µM (inactive)

CC(O)CN1c2ccccc2Sc2ccccc21 (stereo unspecified)
GI50 [20]: > 100 µM (inactive) | GI50 [1]: > 100 µM (inactive) | GI50 [2]: > 100 µM (inactive) | GI50 [3]: > 100 µM (inactive) | GI50 [4]: > 100 µM | GI50 [5]: > 100 µM (inactive) | GI50 [6]: > 100 µM (inactive) | GI50 [7]: > 100 µM (inactive) | GI50 [18]: > 100 µM (inactive) | GI50 [8]: > 100 µM (inactive) | GI50 [9]: > 100 µM (inactive) | GI50 [10]: > 100 µM (inactive) | GI50 [11]: > 100 µM (inactive) | GI50 [14]: > 100 µM (inactive) | GI50 [15]: > 100 µM (inactive) | GI50 [16]: > 100 µM (inactive) | GI50 [17]: > 100 µM (inactive)

ClC(Cl)(Cl)C1CCOC1n1nnc2ccccc21 (stereo unspecified)
GI50 [20]: > 100 µM (inactive) | GI50 [1]: 44.1 µM (inactive) | GI50 [2]: > 100 µM (inactive) | GI50 [3]: > 100 µM (inactive) | GI50 [5]: > 100 µM (inactive) | GI50 [6]: > 100 µM (inactive) | GI50 [7]: > 100 µM (inactive) | GI50 [18]: > 100 µM (inactive) | GI50 [8]: 82.4 µM (inactive) | GI50 [9]: > 100 µM (inactive) | GI50 [10]: > 100 µM (inactive) | GI50 [11]: > 100 µM (inactive) | GI50 [19]: > 100 µM (inactive) | GI50 [12]: 1.2 µM (inactive) | GI50 [15]: > 100 µM (inactive) | GI50 [16]: 90.4 µM (inactive) | GI50 [17]: > 100 µM (inactive)

CCCCC(=O)Oc1ccc(CC(NC(=O)OC(C)(C)C)C(=O)NC(C)C(=O)NC(Cc2ccccc2)C(=O)NCC(N)=O)cc1 (stereo unspecified) (Boc-Y(Pentanoyl)AFG-NH2; configuration not given here)
GI50 [20]: > 100 µM (inactive) | GI50 [1]: 40.6 µM (inactive) | GI50 [2]: > 100 µM (inactive) | GI50 [3]: 20.6 µM (inactive) | GI50 [4]: > 100 µM | GI50 [5]: 19.7 µM (inactive) | GI50 [6]: 20.5 µM (inactive) | GI50 [7]: 20 µM (inactive) | GI50 [18]: 31.6 µM (inactive) | GI50 [8]: 18.8 µM (inactive) | GI50 [9]: 21.9 µM (inactive) | GI50 [10]: 63.8 µM (inactive) | GI50 [11]: 33.3 µM (inactive) | GI50 [19]: 20.7 µM (inactive) | GI50 [12]: 45.5 µM (inactive) | GI50 [14]: 44.8 µM (inactive) | GI50 [15]: > 100 µM (inactive) | GI50 [16]: 20.5 µM (inactive) | GI50 [17]: 20.5 µM (inactive)

CN(C)c1ccc(/C=C2\N=C(N/N=C/c3ccccc3)NC2=O)cc1
GI50 [20]: > 100 µM (inactive) | GI50 [1]: 35.2 µM (inactive) | GI50 [2]: 58.7 µM (inactive) | GI50 [3]: 42.1 µM (inactive) | GI50 [4]: 33.4 µM | GI50 [5]: 44.9 µM (inactive) | GI50 [6]: 56.1 µM (inactive) | GI50 [7]: > 100 µM (inactive) | GI50 [18]: 69.5 µM (inactive) | GI50 [8]: 32.2 µM (inactive) | GI50 [9]: > 100 µM (inactive) | GI50 [10]: 69.5 µM (inactive) | GI50 [19]: > 100 µM (inactive) | GI50 [12]: 81.1 µM (inactive) | GI50 [14]: 67.9 µM (inactive) | GI50 [15]: > 100 µM (inactive) | GI50 [16]: 60.5 µM (inactive) | GI50 [17]: 79.8 µM (inactive)

Cc1ccc(O)cc1.Cc1cccc(O)c1.Cc1ccccc1O [CRESOL]
GI50 [20]: > 100 µM (inactive) | GI50 [1]: 18.7 µM (inactive) | GI50 [2]: > 100 µM (inactive) | GI50 [3]: > 100 µM (inactive) | GI50 [4]: > 100 µM | GI50 [5]: 88.9 µM (inactive) | GI50 [6]: > 100 µM (inactive) | GI50 [7]: > 100 µM (inactive) | GI50 [18]: 8.61 µM (inactive) | GI50 [8]: 8.34 µM (inactive) | GI50 [9]: > 100 µM (inactive) | GI50 [10]: > 100 µM (inactive) | GI50 [11]: > 100 µM (inactive) | GI50 [19]: > 100 µM (inactive) | GI50 [14]: > 100 µM (inactive) | GI50 [15]: > 100 µM (inactive) | GI50 [16]: > 100 µM (inactive) | GI50 [17]: 88.3 µM (inactive)
